Measured values reported in patent publication US8859018B2, “Delivery carrier for antimicrobial essential oils” (Nestec S.A., priority 2010, dated 2014).

Key:
Type in all cases: cell-based
Penicillium nalgiovense = experiment: Challenge test in fresh and aged oyster sauce (Example 3); settings: oyster sauce aged 0 to 6 months; KS 0.10 wt %, garlic EO 0.12 wt %; one week to at least 4 weeks after start
Experimental: (§1) Fresh oyster sauce (OS) tested was the commercial MAGGI Oyster Sauce product from Singapore. The OS was first pasteurized according to standard procedures. After cooling, the samples were divided into 3 groups: A) a negative control group where just 5% of sterilized water was added; B) a positive control group where potassium sorbate (KS) was added to a final concentration of 0.10 wt %; and group C) where a garlic EO acacia gum emulsion (1:1 wt ratio) was added to a final concentration of the EO of 0.12 wt %. Potassium sorbate (E number 202) is widely used as a food preservative and serves here as a positive control. Garlic EO is from Synthite Industries. It was emulsified with acacia gum in the same way as the oregano EO in Example 1.
(§2) The three OS samples were stored (i.e. aged) at 30° C. and ca. 65% relative humidity.
(§3) Microbiological challenge tests were performed directly after preparation of the OS samples, labelled as 0 month, and then after 3 and 6 months of storage, respectively. The challenge tests were performed in the same way as described in Example 1. However, instead of using Saccharomyces cerevisiae as spoilage culture, individual cultures of Aspergillus niger, Penicillium nalgiovense and Eurotium amstelodami were used.

Eurotium amstelodami = experiment: as above; settings: oyster sauce aged 0 to 6 months; KS 0.10 wt %, garlic EO 0.12 wt %; one week to at least 4 weeks after start
Experimental: as §1, §2, §3

Aspergillus niger = experiment: as above; settings: oyster sauce aged 0 to 6 months; KS 0.10 wt %, garlic EO 0.12 wt %; one week to at least 4 weeks after start
Experimental: as §1, §2, §3

[1] = system: Zygosaccharomyces bailii (yeast); experiment: Challenge test with yeasts in MOS / MAS; settings: for Week 0 (Log cfu/g) / Week 1 (Log cfu/g) / Week 2 (Log cfu/g) / Week 3 (Log cfu/g) / Week 4 (Log cfu/g): 0.10%
Experimental: Target microorganisms used for the challenge tests (CT) were Zygosaccharomyces bailii (yeast), Aspergillus niger (mould), Penicillium nalgiovense (mould) and Eurotium amstelodami (mould).
Stock culture of the yeast was revived on MEB. The inoculated broths were incubated at 30° C. for 48-72 hours with constant swirling. The broth cultures were further sub-cultured in the MEB and incubated similarly at 30° C. for 48-72 hours with constant swirling. The final broth cultures were then analyzed for total yeast counts on MEA plate as well as for microbial contamination on PCA by spread plat 0.1-0.5 ml of suspension onto the agar plates respectively. Before the challenge test is initiated, the broth inoculated with yeast was diluted aseptically with sterile Tryptone Salt 0.1% to the desired level such that the inoculation level in the product would be 2-3 log of colony-forming-units (cfu) of yeast per gram (Cfu: colony forming units).
Challenge Test with yeasts was according to the following steps: 1) Add 100 g of MOS into a 250 ml sterile Schott bottle with screw-cap cover; 2) Add 0.1 ml to 2 ml of yeast (Z. bailii) inoculum to meet the target inoculum of 10^2 to 10^3 cfu/g of MOS into the 100 g MOS and shake to mix well; 3) Pour 35 g of the inoculated MOS into two 150 ml sterile disposable polypropylene container with screw-cap cover; 4) Pipette 1 g of inoculated MOS into 9 ml sterile Tryptone Salt 0.1% diluent and vortex. Perform this in duplicate; 5) Plate 0.1 ml to 0.5 ml of inoculated Tryptone Salt 0.1% onto MEA at appropriate dilutions by Spread Plate Method. Incubate the plates at 30° C. for 3 days for the enumeration of the initial yeast count; 6) Incubate the inoculated MOS in 150 ml containers at 30° C. for a week; 7) After one week, repeat steps 4 to 6 for the weekly monitoring of Z. bailii growth behavior in MOS. Perform the monitoring for a period of 4 weeks; 8) The control was prepared by repeating steps 3 to 7 without using any inoculum.
The method for producing MAS was the same as for the MOS production in experiment 4. The preparation of the microorganism cultures as well as the challenge tests were identical to the ones described in experiment 4 as well.

[2] = MAGGI Abalone Sauce, age 0 month
[3] = MAGGI Abalone Sauce, age 1 month
[4] = MAGGI Abalone Sauce, age 3 month
[5] = MAGGI Abalone Sauce, age 6 month
[6] = MAGGI Abalone Sauce, age 10 month
[7] = MAGGI Abalone Sauce, age 12 month
[8] = MAGGI Oyster Sauce, age 0 month

`C/C=C/C=C/C(=O)[O-].[K+]` [KS, potassium sorbate] was tested, and the “growth of the mould strain” value (Penicillium nalgiovense) was “no detectable growth”, the “growth of the mould strain” value (Eurotium amstelodami) was “no detectable growth” and the “growth of the mould strain” value (Aspergillus niger) was “no detectable growth”. The “Week 0 (Log cfu/g)” value [1, 2] was under 1.00 Log cfu/g, the “Week 1 (Log cfu/g)” value [1, 2] was under 1.00 Log cfu/g and the “Week 2 (Log cfu/g)” value [1, 2] was under 1.00 Log cfu/g. The “Week 3 (Log cfu/g)” value [1, 2] was under 1.00 Log cfu/g, the “Week 4 (Log cfu/g)” value [1, 2] was under 1.00 Log cfu/g and the “Week 0 (Log cfu/g)” value [1, 3] was under 1.00 Log cfu/g. The “Week 1 (Log cfu/g)” value [1, 3] was under 1.63 Log cfu/g, the “Week 2 (Log cfu/g)” value [1, 3] was under 1.00 Log cfu/g and the “Week 3 (Log cfu/g)” value [1, 3] was under 1.00 Log cfu/g. The “Week 4 (Log cfu/g)” value [1, 3] was under 1.00 Log cfu/g, the “Week 0 (Log cfu/g)” value [1, 4] was 2.96 Log cfu/g and the “Week 1 (Log cfu/g)” value [1, 4] was under 1.00 Log cfu/g. The “Week 2 (Log cfu/g)” value [1, 4] was under 1.00 Log cfu/g, the “Week 3 (Log cfu/g)” value [1, 4] was under 1.00 Log cfu/g and the “Week 4 (Log cfu/g)” value [1, 4] was under 1.00 Log cfu/g. For the same compound, the “Week 0 (Log cfu/g)” value [1, 5] was 2.13 Log cfu/g, the “Week 1 (Log cfu/g)” value [1, 5] was under 1.00 Log cfu/g and the “Week 2 (Log cfu/g)” value [1, 5] was under 1.00 Log cfu/g. The “Week 3 (Log cfu/g)” value [1, 5] was under 1.00 Log cfu/g, the “Week 4 (Log cfu/g)” value [1, 5] was under 1.00 Log cfu/g and the “Week 0 (Log cfu/g)” value [1, 6] was 4.43 Log cfu/g. The “Week 1 (Log cfu/g)” value [1, 6] was under 2.00 Log cfu/g, the “Week 2 (Log cfu/g)” value [1, 6] was under 1.00 Log cfu/g and the “Week 3 (Log cfu/g)” value [1, 6] was under 1.00 Log cfu/g. The “Week 4 (Log cfu/g)” value [1, 6] was under 1.00 Log cfu/g, the “Week 0 (Log cfu/g)” value [1, 7] was 2.84 Log cfu/g and the “Week 1 (Log cfu/g)” value [1, 7] was 1.72 Log cfu/g. The “Week 2 (Log cfu/g)” value [1, 7] was under 1 Log cfu/g, the “Week 3 (Log cfu/g)” value [1, 7] was under 1 Log cfu/g and the “Week 4 (Log cfu/g)” value [1, 7] was under 1 Log cfu/g. The yeast growth ([1]; MAGGI Abalone Sauce, up to 12 months, KS 0.10%, clove leaf oil 0.06 wt % and 0.15 wt %) was “not detected”, the “Week 0 (Log cfu/g)” value [1, 8] was 3.544 Log cfu/g and the “Week 1 (Log cfu/g)” value [1, 8] was under 1.00 Log cfu/g. For the same compound, the “Week 2 (Log cfu/g)” value [1, 8] was under 1.00 Log cfu/g, the “Week 3 (Log cfu/g)” value [1, 8] was under 1.00 Log cfu/g and the “Week 4 (Log cfu/g)” value [1, 8] was under 1.00 Log cfu/g.
